What was measured:
A549 cell = assay: Evaluation of PGE2 production inhibitory action using A549 cell (IL-1β stimulated); assay type: cell-based, human; conditions: Homo sapiens, A549, 18 h, IC50 value; A549 cell, recombinant IL-1β 1 ng/mL, 18 hr, PGE2 in supernatant; read-out: cell PGE2 production inhibitory activity
Procedure: Experimental Example 2: Evaluation of PGE2 Production Inhibitory Action Using A549 Cell
A549 cell (Japan Health Sciences Foundation Research Resources Bank), which is cell line derived from humans lung cancer, was suspended in assay medium (Ham's F-12K (Wako, #080-08565) containing 2% FBS (Hyclone Laboratories, #SH30910.03), 100 units/mL penicillin and 100 μg/mL streptomycin (Invitrogen, #15140-122)), the suspension was added at 2.5×10^4 cells/100 μL/well to 96 well flat-bottom plate (Corning, #353072), and the plate was left standing for 20 hr in a CO2 incubator set at 37° C. The test article was serially diluted with DMSO (Nacalai Tesque, #13407-45), and then 20-fold diluted with the assay medium to prepare a test article solution having a ten-fold concentration of the final concentration. The final DMSO concentration during the reaction was set to 0.5% (v/v). The medium was removed from the plate in which the cell was added, new assay medium was added at 160 μL/well to the plate, and the plate was left standing for 10 min in a CO2 incubator. Then, the test article solution was added at 20 μL/well to the plate, and the plate was left standing for 30 min in a CO2 incubator. Next, recombinant humans IL-1β (R&D Systems, #201-LB) as a stimulant to enhance PGE2 production due to increase of mPGES-1 mRNA expression was added at 20 μL/well (the final concentration was 1 ng/mL) to the plate, and the plate was left standing for 18 hr in a CO2 incubator. The supernatant was collected at 180 μL/well, and the PGE2 concentration was measured using Prostaglandin E2 assay (CISbio Bioassays, #62P2APEC) according to the manual. As the reference standard for analytical curve, PGE2 (Cayman Chemical, #14010) was used. Using EnVision 2104 (Perkin Elmer), the time-resolved fluorescence at 620 nm and 665 nm relative to the excitation light at 337 nm was measured. PGE2 concentration was extrapolated from the PGE2 analytical curve. Average of the PGE2 concentrations of the respectively-treated wells was used as the data.
The PGE2 production inhibitory activity (%) of the test article was calculated according to the following Formula 3. PGE2 production inhibitory activity(%)=(PGE2A−PGE2X)/(PGE2A−PGE2B)×100 [Formula 3] • PGE2A: PGE2 concentration of vehicle-treated well • PGE2B: PGE2 concentration of blank well (no addition of recombinant humans IL-1B) • PGE2X: PGE2 concentration of test article-treated well

human mPGES-1 = biological target: T1, human mPGES-1 (Homo sapiens, UniProt O14684); assay: Evaluation of human mPGES-1 enzyme inhibitory activity (HTRF measurement of PGE2); assay type: biochemical; conditions: IC50 value; microsome fraction of CHO-S cells expressing human mPGES-1, PGH2 substrate, PGE2 by HTRF; read-out: humans mPGES-1 enzyme inhibitory activity
T1 construct: made in house; host or cells: Chinese hamster ovary-derived cells (FreeStyle CHO-S), transient transfection of pcDNA3.1(+)/human mPGES-1; microsome fraction
T1 sequence (O14684 1-152): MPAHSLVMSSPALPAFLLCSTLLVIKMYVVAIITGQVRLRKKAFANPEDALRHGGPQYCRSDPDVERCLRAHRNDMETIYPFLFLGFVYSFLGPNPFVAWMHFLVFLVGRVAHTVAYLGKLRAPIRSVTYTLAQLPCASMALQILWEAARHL
Procedure: Experimental Example 1: Evaluation of Human mPGES-1 Enzyme Inhibitory Activity
The human mPGES-1 enzyme inhibitory activity of a test article was evaluated according to the report of Xu et al. (XU, D et al. MF63 [2-(6-chloro-1H-phenanthro[9,10-d]imidazol-2-yl)-isophthalonitrile], a selective microsomal prostaglandin E synthase-1 inhibitor relieves pyresis and pain in preclinical models of inflammation. J Pharmacol Exp Ther. September 2008, Vol. 326, No. 3, pages 754-763). The amount of PGE2 produced by human mPGES-1 in the presence of a test article was measured by the HTRF (homogeneous time resolved fluorescence) method, and the human mPGES-1 enzyme inhibitory activity of the test article was determined.
1) Preparation of Human mPGES-1 Expressing Cell Microsome Fraction
A DNA fragment containing human mPGES-1, which is added with a BamHI recognition cleavage sequence just before the translation initiation codon and an EcoRI recognition cleavage sequence just after the translation termination codon, was amplified by the PCR (Polymerase Chain Reaction) method using a human mPGES-1 expression plasmid DNA (pME-18S/iPGES-1) prepared in-house as a template. The purified DNA fragment was digested with BamHI and EcoRI, and ligated to pcDNA3.1(+) (Invitrogen, model number V790-20), similarly_digested with BamHI and EcoRI, by using a DNA Ligation kit ver. 2.1 (Takara Bio, model number 6022). The human mPGES-1 expression plasmid DNA was isolated from Escherichia coli DH5a (TOYOBO, model number DNA-903) transformed with the obtained ligation product. The base sequence of human mPGES-1 cloned to a vector was determined by the Dye Terminator method using BigDye Terminator v3.1 Cycle Sequencing Kit (Applied Biosystems, #4337455). The determined sequence was identical with the sequence of the protein translational region of human mPGES-1 (Accession number NM 004878) registered in the NCBI Reference Database.
Human mPGES-1 expression plasmid DNA was transfected into Chinese hamster ovary-derived cells (FreeStyle CHO-S Cell, Invitrogen, #R^800-07) by using a transgene reagent (FreeStyle MAX Reagent (Invitrogen, #16447-100)), and cultured with shaking (8% CO2, 37° C.) in a medium containing 8 mmol/L L-glutamine (GIBCO FreeStyle CHO Expression Medium, Invitrogen, #12651-022) for 48 hr.
The CHO-S cells were suspended in Homogenate Buffer (100 mmol/L potassium phosphate (pH 7.4), 250 mmol/L Sucrose, 100 mmol/L EDTA, complete EDTA free (Roche, #1873580)). Using an ultrasonic disruptor UD-201 (Tomy Seiko), the suspended cells were disrupted at output:3, duty cycle:50 for 30 seconds. The precipitate was removed by centrifugation (1,000×g, 5 min, 4° C.), and the supernatant was centrifuged (5,000×g, 10 min, 4° C.). The supernatant was further centrifuged (105,000×g, 60 min, 4° C.). The obtained precipitate was suspended in Resuspension Buffer (100 mmol/L potassium phosphate (pH 7.4), 250 mmol/L sucrose, 100 mmol/L EDTA, 10% glycerol) to give a microsome fraction.
The protein concentration of the microsome fraction was measured by the Bradford method (Protein Assay Kit, Bio-Rad). The microsome fraction was rapidly frozen in liquid nitrogen and preserved at −80° C. Human mPGES-1 in the microsome fraction was detected by Western Blot using rabbit anti-mPGES-1 polyclonal antibody (ThermoFisher Scientific, #PA1-10264).
2) Evaluation of Human mPGES-1 Enzyme Inhibitory Activity
A test article solution diluted with 0.1 mol/L potassium phosphate, pH 7.4 (hereinafter to be referred to as KPB) or DMSO (Nacalai Tesque, #13407-45) was added at 5 μL/well to 96 well V-bottom plate (Corning, #3363). The final DMSO concentration during the reaction was set to 2%(v/v). Furthermore, a microsome fraction of CHO-S cells expressing human mPGES-1, which was diluted with reduced GSH (12.5 mmol/L KPB solution, SIGMA, #G6529-25G) such that the protein concentration was 5 μg/mL, was added at 20 μL/well. […]

Compound	IC50 (A549 cell) [nM]	IC50 (human mPGES-1) [nM]
COC1(C(=O)NCc2ccc(Cl)c(-c3nc(O)nc(-c4cccc(C(C)(C)C)c4)n3)c2)CCCC1 [Example 22]	16	0.9
CCCCCCOc1ccc(-c2nc(O)nc(-c3cc(CNC(=O)C(C)(C)C(F)(F)F)ccc3Cl)n2)cn1 [Example 23]	2.4	7.2
COC1(C(=O)NCc2ccc(Cl)c(-c3nc(O)nc(-c4cccc(C(C)(C)C)c4)n3)c2)CCCCC1 [Example 24]	8.2	1.6
CCC[C@@H](C)Oc1ccc(-c2nc(O)nc(-c3cc(CNC(=O)C(C)(C)C(F)(F)F)ccc3Cl)n2)cn1 [Example 25, N-(4-chloro-3-{4-hydroxy-6-[6-((R)-1-methylbutoxy)pyridin-3-yl]-1,3,5-triazin-2-yl}benzyl)-3,3,3-trifluoro-2,2-dimethylpropionamide]	2.9	3.1
COc1ccc(-c2nc(O)nc(-c3cc(CNC(=O)C(C)(C)C(F)(F)F)ccc3Cl)n2)cn1 [Example 26]	260	0.7
CCOc1ccc(-c2nc(O)nc(-c3cc(CNC(=O)C(C)(C)C(F)(F)F)ccc3Cl)n2)cn1 [Example 27]	79	0.7
COc1ccc(-c2nc(O)nc(-c3cc(CNC(=O)C4(OC)CCCCC4)ccc3Cl)n2)cn1 [Example 28]	100	1.8
COc1ccc(-c2nc(O)nc(-c3cc(CNC(=O)C4(C(F)(F)F)CCCC4)ccc3Cl)n2)cn1 [Example 29]	69	0.8
COc1ccc(-c2nc(O)nc(-c3cc(CNC(=O)C4(C(F)(F)F)CCCCC4)ccc3Cl)n2)cn1 [Example 30]	33	0.8
CCOc1ccc(-c2nc(O)nc(-c3cc(CNC(=O)C4(OC)CCCCC4)ccc3Cl)n2)cn1 [Example 31]	86	1
CCOc1ccc(-c2nc(O)nc(-c3cc(CNC(=O)C4(C(F)(F)F)CCCC4)ccc3Cl)n2)cn1 [Example 32]	40	0.7
CCOc1ccc(-c2nc(O)nc(-c3cc(CNC(=O)C4(C(F)(F)F)CCCCC4)ccc3Cl)n2)cn1 [Example 33]	11	0.8
COc1ccc(-c2nc(O)nc(-c3cc(CNC(=O)C4(OC)CCCC4)ccc3Cl)n2)cn1 [Example 34]	1000	1.6
COc1ccc(-c2nc(O)nc(-c3cc(CNC(=O)C(C)(C)C(F)(F)F)ccc3Cl)n2)cc1C(C)C [Example 35]	14	2
COc1ccc(-c2nc(O)nc(-c3cc(CNC(=O)C(C)(C)C(F)(F)F)ccc3Cl)n2)cc1C(C)(C)C [Example 36]	10	5.8
CCOc1ccc(-c2nc(O)nc(-c3cc(CNC(=O)C4(OC)CCCC4)ccc3Cl)n2)cn1 [Example 37]	170	3
CC(C)c1cccc(-c2nc(O)nc(-c3cc(CNC(=O)C4(F)CC4)ccc3Cl)n2)c1 [Example 38]	130	2.9
CC(C)c1cccc(-c2nc(O)nc(-c3cc(CNC(=O)C4(F)CCCCC4)ccc3Cl)n2)c1 [Example 39]	57	3.9
CC(C)Oc1ccc(-c2nc(O)nc(-c3cc(CNC(=O)C(C)(C)C(F)(F)F)ccc3Cl)n2)cn1 [Example 40]	45	0.8
CC(C)c1cccc(-c2nc(O)nc(-c3cc(CNC(=O)C4(F)CCCC4)ccc3Cl)n2)c1 [Example 41]	23	1.3
CC[C@@H](C)Oc1ccc(-c2nc(O)nc(-c3cc(CNC(=O)C(C)(C)C(F)(F)F)ccc3Cl)n2)cn1 [Example 42]	7.9	1.3
CCC(C)(C)c1cccc(-c2nc(O)nc(-c3cc(CNC(=O)C(C)(C)C(F)(F)F)ccc3Cl)n2)c1 [Example 43]	6.5	3.5
COC(C)(C)c1cccc(-c2nc(O)nc(-c3cc(CNC(=O)C(C)(C)C(F)(F)F)ccc3Cl)n2)c1 [Example 44]	26	3.6
CCCOc1ccc(-c2nc(O)nc(-c3cc(CNC(=O)C4(C(F)(F)F)CCCC4)ccc3Cl)n2)cn1 [Example 45]	8	1.3
CCCOc1ccc(-c2nc(O)nc(-c3cc(CNC(=O)C4(C(F)(F)F)CCCCC4)ccc3Cl)n2)cn1 [Example 46]	4.1	3.2
CCCCC(C)(C)C(=O)NCc1ccc(Cl)c(-c2nc(O)nc(-c3ccc(OCCC)nc3)n2)c1 [Example 47]	100	2.1
CC(C)c1cc(-c2nc(O)nc(-c3cc(CNC(=O)C(C)(C)C(F)(F)F)ccc3Cl)n2)ccc1Cl [Example 48, N-{4-chloro-3-[4-(4-chloro-3-isopropylphenyl)-6-hydroxy-1,3,5-triazin-2-yl]benzyl}-3,3,3-trifluoro-2,2-dimethylpropionamide]	2.7	0.5

Reference: patent US12492182B2, “Hydroxytriazine compounds and pharmaceutical use thereof” (Japan Tobacco Inc., priority 2015, dated 2025)
